Active and inactive are the calls of the source. No cut-off for these calls is given here.
Assays:
Mus musculus [1] = assay: Gallbladder emptying activity in mouse assessed as reduction of gallbladder weight at 0.001 mg/kg, po; assay type: functional; parameters: scale not given: the % may be the effect or the level left
[2] = target: Cholecystokinin receptor type A (Mus musculus, UniProt O08786); assay: Agonist activity against mouse CCK1 receptor; assay type: functional
Mus musculus [3] = assay: Reduction in overnight food intake in lean mouse at 0.3 mg/kg, po; assay type: functional; parameters: scale not given: the % may be the effect or the level left
Mus musculus [4] = assay: Reduction in overnight food intake in lean mouse at 3 mg/kg, po; assay type: functional; parameters: scale not given: the % may be the effect or the level left
[5] = Clearance in mouse at 1.0 mg/kg, iv and 10 mg/kg, po; assay type: ADME, organism-based; details: in vivo
[6] = Volume of distribution in mouse at 1.0 mg/kg, iv and 10 mg/kg, po; assay type: ADME, organism-based; details: in vivo
[7] = Half life in mouse at 1.0 mg/kg, iv and 10 mg/kg, po; assay type: ADME, organism-based; details: in vivo
[8] = (§1) Cmax in mouse at 1.0 mg/kg, iv and 10 mg/kg, po; assay type: ADME, organism-based; details: in vivo
[9] = Oral bioavailability in mouse at 10 mg/kg; assay type: ADME, organism-based; details: in vivo
[10] = target: T1, Cholecystokinin receptor type A (Homo sapiens, UniProt P32238); assay: Agonist activity against human CCK1 receptor; assay type: functional
T1 sequence (P32238 whole entry): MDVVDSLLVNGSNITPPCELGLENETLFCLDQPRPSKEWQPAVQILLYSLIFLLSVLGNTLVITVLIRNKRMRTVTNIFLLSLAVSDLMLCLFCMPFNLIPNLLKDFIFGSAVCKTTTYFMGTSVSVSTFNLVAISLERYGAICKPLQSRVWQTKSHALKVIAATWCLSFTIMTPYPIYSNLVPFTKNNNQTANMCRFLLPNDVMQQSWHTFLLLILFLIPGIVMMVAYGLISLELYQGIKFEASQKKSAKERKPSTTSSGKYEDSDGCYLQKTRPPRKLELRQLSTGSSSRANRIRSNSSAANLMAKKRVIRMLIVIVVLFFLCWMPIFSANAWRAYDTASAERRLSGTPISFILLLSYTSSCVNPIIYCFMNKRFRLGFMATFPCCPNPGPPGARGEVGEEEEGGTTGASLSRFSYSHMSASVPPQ

[11] = target: T1, Cholecystokinin receptor type A; assay: Inhibition of human CCK1 receptor
[12] = target: T2, Gastrin/cholecystokinin type B receptor (Homo sapiens, UniProt P32239); assay: Inhibition of human CCK2 receptor
T2 sequence (P32239 whole entry): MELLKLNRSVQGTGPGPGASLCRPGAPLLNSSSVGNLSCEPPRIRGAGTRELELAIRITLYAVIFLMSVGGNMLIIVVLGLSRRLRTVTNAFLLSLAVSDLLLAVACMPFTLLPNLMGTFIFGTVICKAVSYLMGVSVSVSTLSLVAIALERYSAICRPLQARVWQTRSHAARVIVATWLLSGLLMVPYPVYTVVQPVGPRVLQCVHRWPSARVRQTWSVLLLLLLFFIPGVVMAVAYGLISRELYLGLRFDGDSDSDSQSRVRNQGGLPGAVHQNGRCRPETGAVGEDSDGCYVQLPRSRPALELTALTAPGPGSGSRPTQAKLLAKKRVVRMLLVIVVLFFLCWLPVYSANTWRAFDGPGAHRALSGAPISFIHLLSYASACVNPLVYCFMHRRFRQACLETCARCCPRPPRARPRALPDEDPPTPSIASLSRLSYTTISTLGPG

[13] = target: T3, Gastrin/cholecystokinin type B receptor (Homo sapiens) (UniProt P32239); assay: Agonist activity against human CCK2 receptor; assay type: functional
T3 sequence (whole entry): T2 sequence (P32239 whole entry)

[14] = target: T3, Gastrin/cholecystokinin type B receptor (Homo sapiens); assay: Agonist activity against human CCK2 receptor assessed as receptor activation at 10000 nM; assay type: functional
[15] = target: T4, Cholecystokinin receptor type A (Homo sapiens) (UniProt P32238); assay: Agonist activity against human CCK1 receptor assessed as receptor activation at 10000 nM; assay type: functional
T4 sequence (whole entry): T1 sequence (P32238 whole entry)

[16] = target: T3, Gastrin/cholecystokinin type B receptor (Homo sapiens); assay: Inhibition of human CCK2 receptor at 10000 nM
Mus musculus [17] = assay: Gallbladder emptying activity in mouse assessed as reduction of gallbladder weight at 0.3 mg/kg, po; assay type: functional; parameters: scale not given: the % may be the effect or the level left
Mus musculus [18] = assay: as §1; assay type: ADME, organism-based; details: in vivo
Mus musculus [19] = assay: Gallbladder emptying activity in mouse assessed as reduction of gallbladder weight at 0.1 mg/kg, po; assay type: functional, organism-based; parameters: dose 0.1 mg/kg
Mus musculus [20] = assay: Reduction in overnight food intake in wild-type mouse at 10 mg/kg; assay type: functional, organism-based; parameters: dose 10 mg/kg
Mus musculus [21] = assay: Reduction in overnight food intake in CCK1 receptor deficient mouse at 10 mg/kg; assay type: functional, organism-based; parameters: dose 10 mg/kg

Sequence of Cholecystokinin receptor type A (Mus musculus, UniProt O08786) (O08786 whole entry, looked up): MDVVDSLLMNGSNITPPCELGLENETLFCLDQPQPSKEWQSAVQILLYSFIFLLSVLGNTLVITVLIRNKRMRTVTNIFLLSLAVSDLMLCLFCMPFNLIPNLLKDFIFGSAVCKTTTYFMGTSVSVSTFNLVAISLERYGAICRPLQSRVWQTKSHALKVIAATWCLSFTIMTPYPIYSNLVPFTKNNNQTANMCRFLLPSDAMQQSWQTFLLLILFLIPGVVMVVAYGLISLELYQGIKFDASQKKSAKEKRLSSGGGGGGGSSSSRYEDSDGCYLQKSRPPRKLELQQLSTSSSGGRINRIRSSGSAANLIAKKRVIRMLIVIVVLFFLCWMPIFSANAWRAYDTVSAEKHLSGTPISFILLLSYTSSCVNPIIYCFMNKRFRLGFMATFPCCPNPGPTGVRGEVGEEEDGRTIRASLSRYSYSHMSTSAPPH

EC50 [10] [nM]	IC50 [11] [nM]	IC50 [12] [nM]	Activity [13]	Activity [14] [%]	Activity [15] [%]	inhibition [16] [%]	SMILES	further results
0.048	0.08	> 10000					CCOc1cccc(-n2cc(C(=O)N3CCN(c4cc(C(=O)O)c5ccccc5c4)CC3)nc2-c2ccc(F)cc2)c1 [listing 1 of 2 here]	clearance [5]: 6.4 mL/min/kg; Vd [6]: 0.73 L/kg; half-life [7]: 2.7 h; Cmax [8]: 1100 nM; bioavailability [9]: 33%
			inactive	< 36	95	< 24	CCOc1cccc(-n2cc(C(=O)N3CCN(c4cc(C(=O)O)c5ccccc5c4)CC3)nc2-c2ccc(F)cc2)c1 [listing 2 of 2 here]	
			inactive	< 36	105	< 24	CCOc1cccc(-n2cc(C(=O)N3CCN(c4cc(C(=O)O)c5ccccc5c4)CC3)nc2-c2ccc(C)cc2)c1 [listing 1 of 2 here]	Activity (Mus musculus [20]): Active; Activity (Mus musculus [21]): inactive
0.094	0.12	> 10000					CCOc1cccc(-n2cc(C(=O)N3CCN(c4cc(C(=O)O)c5ccccc5c4)CC3)nc2-c2ccc(C)cc2)c1 [listing 2 of 2 here]	clearance [5]: 5.3 mL/min/kg; Vd [6]: 0.47 L/kg; half-life [7]: 3.5 h; Cmax [8]: 280 nM; bioavailability [9]: 7%

Further lines, the compound ahead of its results:

SMILES	EC50 [10] [nM]	IC50 [11] [nM]	IC50 [12] [nM]	Activity [13]	Activity [14] [%]	Activity [15] [%]	inhibition [16] [%]	further results
CCOc1cccc(-n2cc(C(=O)N3CCN(c4cc(C(=O)O)c5ccccc5c4)CC3)nc2-c2ccc(C)cc2)c1.O=C(O)C(F)(F)F								Activity (Mus musculus [1]): 72%; EC50 [2]: 1.3 nM; Activity (Mus musculus [3]): 18%; Activity (Mus musculus [4]): 82%
CCOc1cccc(-n2cc(C(=O)N3CCN(c4cnc5ccccc5c4)CC3)nc2-c2ccc(C)cc2)c1 [listing 1 of 3 here]								EC50 [2]: 2.1 nM
CCOc1cccc(-n2cc(C(=O)N3CCN(c4cnc5ccccc5c4)CC3)nc2-c2ccc(C)cc2F)c1	0.13	0.24	> 10000	inactive	< 36	86	< 24	
Cc1ccc(-c2nc(C(=O)N3CCN(c4cc(C(=O)O)c5ccccc5c4)CC3)cn2-c2ccc3c(c2)OCCO3)cc1	0.14	0.14	> 10000	inactive	< 36	107	< 24	
Cc1ccc(-c2nc(C(=O)N3CCN(c4cc(C(=O)O)c5ccccc5c4)CC3)cn2-c2ccc3c(c2)OCCO3)c(F)c1	0.077	0.03	> 10000	inactive	< 36	71	< 24	
CCOc1cccc(-n2cc(C(=O)N3CCN(c4cc(C(=O)O)c5ccccc5c4)CC3)nc2-c2ccc(F)cc2)c1.O=C(O)C(F)(F)F								Activity (Mus musculus [1]): 69%; EC50 [2]: 1.5 nM; Activity (Mus musculus [4]): 73%
CCOc1cccc(-n2cc(C(=O)N3CCN(c4cnc5ccccc5c4)CC3)nc2-c2ccc(F)cc2)c1	0.25	0.6	> 10000	inactive	< 36	92	< 24	
CCOc1cccc(-n2cc(C(=O)N3CCN(c4cc(C(=O)O)c5ccccc5c4)CC3)nc2-c2ccc(F)cc2F)c1	0.053	0.07	> 10000	inactive	< 36	76	< 24	
CCOc1cccc(-n2cc(C(=O)N3CCN(c4cnc5ccccc5c4)CC3)nc2-c2ccc(C)cc2)c1 [listing 2 of 3 here]	0.73	0.45	> 10000					Activity (Mus musculus [17]): 59%
CCOc1cccc(-n2cc(C(=O)N3CCN(c4cc(C(=O)[O-])c5ccccc5c4)CC3)nc2-c2ccc(C)cc2)c1.[Na+]								EC50 [2]: 0.78 nM; Activity (Mus musculus [3]): 29%; Activity (Mus musculus [4]): 78%; clearance [5]: 3.1 mL/min/kg; Vd [6]: 0.56 L/kg; half-life [7]: 3.4 h; Cmax (Mus musculus [18]): 4900 nM; bioavailability [9]: 43%
CCOc1cccc(-n2cc(C(=O)N3CCN(c4cc(C(=O)O)c5ccccc5c4)CC3)nc2-c2ccc(C)cc2F)c1.O=C(O)C(F)(F)F								Activity (Mus musculus [1]): 77%; EC50 [2]: 0.3 nM; Activity (Mus musculus [3]): 13%; Activity (Mus musculus [4]): 86%
CCOc1cccc(-n2cc(C(=O)N3CCN(c4cnc5ccccc5c4)CC3)nc2-c2ccc(C)cc2)c1 [listing 3 of 3 here]				inactive	< 36	105	< 24	Activity (Mus musculus [19]): inactive
CCOc1cccc(-n2cc(C(=O)N3CCN(c4cc(C(=O)O)c5ccccc5c4)CC3)nc2-c2ccc(C)cc2F)c1 [listing 1 of 2 here]	0.056	0.06	> 10000					clearance [5]: 10.4 mL/min/kg; Vd [6]: 0.59 L/kg; half-life [7]: 1.7 h; Cmax [8]: 820 nM; bioavailability [9]: 22%
Cc1ccc(-c2nc(C(=O)N3CCN(c4cnc5ccccc5c4)CC3)cn2-c2ccc3c(c2)OCCO3)cc1	0.12	0.2	> 10000	inactive	< 36	94	< 24	
O=C(O)C(F)(F)F.O=C(O)c1cc(N2CCN(C(=O)c3cn(-c4ccc5c(c4)OCCO5)c(-c4ccc(F)cc4)n3)CC2)cc2ccccc12								Activity (Mus musculus [1]): 88%; EC50 [2]: 0.14 nM; Activity (Mus musculus [3]): 16%; Activity (Mus musculus [4]): 96%
O=C(O)c1cc(N2CCN(C(=O)c3cn(-c4ccc5c(c4)OCCO5)c(-c4ccc(F)cc4)n3)CC2)cc2ccccc12 [listing 1 of 2 here]				inactive	< 36	97	< 24	
O=C(c1cn(-c2ccc3c(c2)OCCO3)c(-c2ccc(F)cc2)n1)N1CCN(c2cnc3ccccc3c2)CC1	0.26	0.12	> 10000	inactive	< 36	101	< 24	
CCOc1cccc(-n2cc(C(=O)N3CCN(c4cc(C(=O)O)c5ccccc5c4)CC3)nc2-c2ccc(C)cc2F)c1 [listing 2 of 2 here]				inactive	< 36	73	< 24	Activity (Mus musculus [20]): Active; Activity (Mus musculus [21]): inactive
CCOc1cccc(-n2cc(C(=O)N3CCN(c4cnc5ccccc5c4)CC3)nc2-c2ccccc2F)c1	0.53	0.57	> 10000	inactive	< 36	89	< 24	
O=C(O)c1cc(N2CCN(C(=O)c3cn(-c4ccc5c(c4)OCCO5)c(-c4ccc(F)cc4)n3)CC2)cc2ccccc12 [listing 2 of 2 here]	0.093	0.03	> 10000					

Reference: ChEMBL document CHEMBL1155836, “Discovery of imidazole carboxamides as potent and selective CCK1R agonists” (Bioorg Med Chem Lett, 2008)
